For one assay, the target named is LRRK1 WT (Homo sapiens, UniProt Q38SD2). As to the kind of experiment: In vitro kinase assay: LRRK1-mediated MBP phosphorylation. In kind it is biochemical. Particulars: for IC50: Table 3, mean of three experiments.
The target in assay [1] is T1, LRRK2 G2019S (Homo sapiens, UniProt Q5S007, G2019S). As to the kind of experiment: In vitro kinase assay: G2019S LRRK2-mediated MBP phosphorylation. The class given is biochemical. The note with it: for effect on G2019S LRRK2 MBP phosphorylation: dose-response; for IC50: Table 2, mean of three experiments. The procedure: (§1) Transfection was performed by using Fugene HD reagent (Roche Applied Science) according to the manufacturer's instruction. For purification of recombinant LRRK1 and LRRK2 proteins, ACTA Purifier (GE Healthcare) FPLC system was used.
(§2) Resulting lysates were rotated at 4° C. for 30 min followed by centrifugation at 20,000×g for 15 min. The supernatants were injected into a GSTrap FF column pre-equilibrated with PBS at 0.5. mL/min flow after filtration using a 0.2 μm syringe filter (Corning). The bound proteins were eluted with buffer containing 10 mM GSH (Sigma), 150 mM NaCl, and 50 mM Tris-HCl (pH 8.0).
(§3) The in vitro kinase assay was performed as previously described. […] Recombinant LRRK2 and MBP or CST-4E-BP1 were combined before the kinase reaction. LRRK2 autophosphorylation is LRRK2 itself phosphorylation and MBP or GST-4E-BP1 phosphorylation is induced by LRRK2. After the kinase reaction, combined LRRK2 and MBP or GST-4E-BP1 were loaded on SDSPAGE and phosphorylated LRRK2 and MBP or GST-4E-BP1 could be detected separately an a single gel. Recombinant proteins and inhibitors were incubated at 30° C. in kinase assay buffer containing 20 mM Hepes (pH 7.4), 5 mM EGTA, and 20 mM β-glycerol phosphate. 0.5 μg MBP (Upstate) or 0.5 μg GST-4B-BP1, 50 μM ATP (Sigma), 20 mM MgCl2, and 1 μCi [γ-32P] ATP (PerkinElmer) was added after 5 min. The reaction was performed at 30° C. to reduce non-specific 32P incorporation for 15 min and terminated by the addition of 5×Laemmili sample buffer. […] Gels were stained by coomassie brilliant blue after fixation with 10% acetic acid and 40% methanol and then exposed to a Phosphoimager. Data were analyzed by ImageQuant 6.0 software.
(§4) To calculate the IC50 value, a dose-response curve was constructed and non-linear regression analysis using the equation for a sigmoid plot.

The target in the next assay is LRRK2 WT (Homo sapiens, UniProt Q5S007). Put plainly: In vitro kinase assay: LRRK2-mediated MBP phosphorylation. The class given is biochemical. Particulars: for effect on WT LRRK2 MBP phosphorylation: dose-response; for IC50: mean of three experiments; for MBP phosphorylation Average ± SEM: compound 16 μM, 30° C., 15 min, normalized to absence of compound, mean ± S.E.M. of three experiments; for effect on LRRK2-mediated phosphorylation of MBP: screen at 16 μM.

In assay [2] the target is T1, LRRK2 G2019S. Put plainly: In vitro kinase assay: G2019S LRRK2 autophosphorylation. The class given is biochemical. Particulars: for effect on G2019S LRRK2 autophosphorylation: dose-response; for IC50: Table 2, mean of three experiments. The procedure:
as §1, §2, §3, §4

Assay [3] relates to rat primary cortical neuronal cultures transfected with G2019S LRRK2. Put plainly: LRRK2-induced neuronal toxicity in primary cortical neuronal cultures (neurite shortening, TUNEL). The class given is cell-based. Particulars: 0.5 μM. The protocol:
Representative photomicrographs of each experimental group. LRRK2 and eGFP constructs were combined in a molar ratio of 10:1, respectively, and transfected by using of Lipofectamine 2000 (Invitrogen) at DIV (day in vitro) 14 into rat primary cortical neuronal cultures. Compounds (0.5 μM) were administrated at the time of transfection and continued until toxicity assessments. On DIV 16, images were collected on a Zeiss Automatic stage with Axiovision 6.0. (a) Low magnified photomicrographs; (b and c) High magnified photomicrographs. Scale bar=50 μm (a) and 10 μm (b and c);
Primary cortical neuronal cultures were prepared from gestational day 15 fetal rats as previously described. Gonzalez-Zulueta, M., et al. Manganese superoxide dismutase protects nNOS neurons from NMDA and nitric oxide-mediated neurotoxicity. J Neurosci 18, 2040-2055 (1998). All procedures used in this study were approved by the Johns Hopkins Medical Institute Animal Care Committee. Cell viability assays and DNA fragmentation (TUNEL assay) were performed as previously described. Smith, W. W., et al. Kinase activity of mutant LRRK2 mediates neuronal toxicity. Nat Neurosci 9, 1231-1233 (2006); West, A. B., et al. Parkinson's disease-associated mutations in LRRK2 link enhanced GTP-binding and kinase activities to neuronal toxicity. Hum Mol Genet 16, 223-232 (2007). The cortex was dissected, incubated for 15 min in 0.027% trypsin, and then transferred to modified Eagle's medium (MEM)/10% horse serum/10% fetal bovine serum/2 mM glutamine followed by trituration. Dissociated cells were plated at a density of 3-4×10^5 cells per well in polyornithine-coated plates. After 4 days the cells were treated with 10 μg of 5-fluoro-2′-deoxyuridine to prevent proliferation of nonneuronal cells. Cells were maintained in MEM/5% horse serum/2 mM glutamine in 8% CO2 incubator. The medium was changed twice weekly. For assessment of LRRK2-mediated neuronal injury, LRRK2 and eGFP constructs were combined in a molar ratio of 10:1, respectively, and transfected into neurons with Lipofectamine 2000 (Invitrogen) at DIV (day in vitro) 14. On DIV 16, images were collected on a Zeiss Automatic stage with Axiovision 6.0. Viable neurons were defined as having at least one smooth extension (neurite) with twice the length of the cell body. The percentage of eGFP-positive injured neurons in each experimental group relative to those neurons transfected with eGFP was calculated.

Each structure is given as a SMILES string.

T1 sequence (Q5S007 whole entry G2019S): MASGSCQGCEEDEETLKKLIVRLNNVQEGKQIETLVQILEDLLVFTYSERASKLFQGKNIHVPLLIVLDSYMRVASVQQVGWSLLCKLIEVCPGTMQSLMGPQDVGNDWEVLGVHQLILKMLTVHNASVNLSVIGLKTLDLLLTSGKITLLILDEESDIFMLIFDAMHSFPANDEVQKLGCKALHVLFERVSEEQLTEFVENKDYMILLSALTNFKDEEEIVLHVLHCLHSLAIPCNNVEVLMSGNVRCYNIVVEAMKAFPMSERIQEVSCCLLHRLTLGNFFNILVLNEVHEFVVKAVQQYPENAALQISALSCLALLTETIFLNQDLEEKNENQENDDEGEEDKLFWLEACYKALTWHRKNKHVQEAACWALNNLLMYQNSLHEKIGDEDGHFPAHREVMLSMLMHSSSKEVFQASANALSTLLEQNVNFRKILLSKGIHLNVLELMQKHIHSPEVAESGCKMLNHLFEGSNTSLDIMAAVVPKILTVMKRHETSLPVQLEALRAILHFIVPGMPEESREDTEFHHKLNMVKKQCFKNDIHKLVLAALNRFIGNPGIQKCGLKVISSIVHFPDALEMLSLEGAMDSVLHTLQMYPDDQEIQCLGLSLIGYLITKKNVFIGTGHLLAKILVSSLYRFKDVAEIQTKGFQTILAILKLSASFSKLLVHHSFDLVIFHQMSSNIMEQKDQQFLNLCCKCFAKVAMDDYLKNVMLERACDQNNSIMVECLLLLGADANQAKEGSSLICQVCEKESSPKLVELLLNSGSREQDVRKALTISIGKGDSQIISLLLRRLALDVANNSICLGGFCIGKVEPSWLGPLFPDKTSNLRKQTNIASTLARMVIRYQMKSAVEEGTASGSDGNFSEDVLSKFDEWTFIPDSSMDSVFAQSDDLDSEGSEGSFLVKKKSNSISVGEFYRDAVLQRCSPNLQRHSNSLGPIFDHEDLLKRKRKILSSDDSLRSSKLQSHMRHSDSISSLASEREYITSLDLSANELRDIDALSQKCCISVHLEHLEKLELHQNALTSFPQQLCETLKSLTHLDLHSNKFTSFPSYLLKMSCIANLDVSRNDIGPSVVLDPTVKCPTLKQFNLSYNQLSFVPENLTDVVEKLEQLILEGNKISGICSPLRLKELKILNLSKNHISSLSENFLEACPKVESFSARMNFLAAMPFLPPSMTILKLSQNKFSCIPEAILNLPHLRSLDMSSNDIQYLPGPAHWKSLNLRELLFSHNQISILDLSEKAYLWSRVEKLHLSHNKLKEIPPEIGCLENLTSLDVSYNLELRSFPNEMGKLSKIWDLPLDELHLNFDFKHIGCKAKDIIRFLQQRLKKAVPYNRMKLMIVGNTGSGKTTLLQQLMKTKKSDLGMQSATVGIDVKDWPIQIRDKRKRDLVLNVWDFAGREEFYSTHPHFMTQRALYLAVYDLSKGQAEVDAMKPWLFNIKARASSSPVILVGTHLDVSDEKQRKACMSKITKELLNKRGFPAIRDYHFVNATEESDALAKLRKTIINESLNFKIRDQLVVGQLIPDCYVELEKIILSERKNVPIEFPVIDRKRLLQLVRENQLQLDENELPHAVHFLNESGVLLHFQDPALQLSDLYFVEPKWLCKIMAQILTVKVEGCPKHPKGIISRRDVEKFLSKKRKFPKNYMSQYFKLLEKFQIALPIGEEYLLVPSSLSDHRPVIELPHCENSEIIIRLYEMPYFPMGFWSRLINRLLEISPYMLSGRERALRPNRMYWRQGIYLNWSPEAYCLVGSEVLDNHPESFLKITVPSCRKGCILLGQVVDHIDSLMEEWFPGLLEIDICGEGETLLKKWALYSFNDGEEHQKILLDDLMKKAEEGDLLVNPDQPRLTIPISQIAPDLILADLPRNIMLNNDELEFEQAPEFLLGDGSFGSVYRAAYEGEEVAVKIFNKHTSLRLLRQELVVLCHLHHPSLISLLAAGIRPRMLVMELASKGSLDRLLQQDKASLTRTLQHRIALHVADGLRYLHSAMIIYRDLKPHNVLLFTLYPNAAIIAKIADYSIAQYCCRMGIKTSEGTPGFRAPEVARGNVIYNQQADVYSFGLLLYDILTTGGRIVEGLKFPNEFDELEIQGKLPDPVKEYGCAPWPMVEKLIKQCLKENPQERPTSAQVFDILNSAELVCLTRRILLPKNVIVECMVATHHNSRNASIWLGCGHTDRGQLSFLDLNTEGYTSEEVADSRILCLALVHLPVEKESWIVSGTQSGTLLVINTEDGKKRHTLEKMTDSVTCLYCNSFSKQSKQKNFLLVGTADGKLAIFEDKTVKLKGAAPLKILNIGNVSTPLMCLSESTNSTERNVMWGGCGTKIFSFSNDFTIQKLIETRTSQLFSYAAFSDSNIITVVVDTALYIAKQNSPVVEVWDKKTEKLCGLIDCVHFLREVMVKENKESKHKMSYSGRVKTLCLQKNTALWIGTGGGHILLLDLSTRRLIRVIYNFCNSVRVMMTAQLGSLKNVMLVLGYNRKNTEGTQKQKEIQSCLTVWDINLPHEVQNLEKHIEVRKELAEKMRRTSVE
Sequence of LRRK1 WT (Q38SD2 whole entry): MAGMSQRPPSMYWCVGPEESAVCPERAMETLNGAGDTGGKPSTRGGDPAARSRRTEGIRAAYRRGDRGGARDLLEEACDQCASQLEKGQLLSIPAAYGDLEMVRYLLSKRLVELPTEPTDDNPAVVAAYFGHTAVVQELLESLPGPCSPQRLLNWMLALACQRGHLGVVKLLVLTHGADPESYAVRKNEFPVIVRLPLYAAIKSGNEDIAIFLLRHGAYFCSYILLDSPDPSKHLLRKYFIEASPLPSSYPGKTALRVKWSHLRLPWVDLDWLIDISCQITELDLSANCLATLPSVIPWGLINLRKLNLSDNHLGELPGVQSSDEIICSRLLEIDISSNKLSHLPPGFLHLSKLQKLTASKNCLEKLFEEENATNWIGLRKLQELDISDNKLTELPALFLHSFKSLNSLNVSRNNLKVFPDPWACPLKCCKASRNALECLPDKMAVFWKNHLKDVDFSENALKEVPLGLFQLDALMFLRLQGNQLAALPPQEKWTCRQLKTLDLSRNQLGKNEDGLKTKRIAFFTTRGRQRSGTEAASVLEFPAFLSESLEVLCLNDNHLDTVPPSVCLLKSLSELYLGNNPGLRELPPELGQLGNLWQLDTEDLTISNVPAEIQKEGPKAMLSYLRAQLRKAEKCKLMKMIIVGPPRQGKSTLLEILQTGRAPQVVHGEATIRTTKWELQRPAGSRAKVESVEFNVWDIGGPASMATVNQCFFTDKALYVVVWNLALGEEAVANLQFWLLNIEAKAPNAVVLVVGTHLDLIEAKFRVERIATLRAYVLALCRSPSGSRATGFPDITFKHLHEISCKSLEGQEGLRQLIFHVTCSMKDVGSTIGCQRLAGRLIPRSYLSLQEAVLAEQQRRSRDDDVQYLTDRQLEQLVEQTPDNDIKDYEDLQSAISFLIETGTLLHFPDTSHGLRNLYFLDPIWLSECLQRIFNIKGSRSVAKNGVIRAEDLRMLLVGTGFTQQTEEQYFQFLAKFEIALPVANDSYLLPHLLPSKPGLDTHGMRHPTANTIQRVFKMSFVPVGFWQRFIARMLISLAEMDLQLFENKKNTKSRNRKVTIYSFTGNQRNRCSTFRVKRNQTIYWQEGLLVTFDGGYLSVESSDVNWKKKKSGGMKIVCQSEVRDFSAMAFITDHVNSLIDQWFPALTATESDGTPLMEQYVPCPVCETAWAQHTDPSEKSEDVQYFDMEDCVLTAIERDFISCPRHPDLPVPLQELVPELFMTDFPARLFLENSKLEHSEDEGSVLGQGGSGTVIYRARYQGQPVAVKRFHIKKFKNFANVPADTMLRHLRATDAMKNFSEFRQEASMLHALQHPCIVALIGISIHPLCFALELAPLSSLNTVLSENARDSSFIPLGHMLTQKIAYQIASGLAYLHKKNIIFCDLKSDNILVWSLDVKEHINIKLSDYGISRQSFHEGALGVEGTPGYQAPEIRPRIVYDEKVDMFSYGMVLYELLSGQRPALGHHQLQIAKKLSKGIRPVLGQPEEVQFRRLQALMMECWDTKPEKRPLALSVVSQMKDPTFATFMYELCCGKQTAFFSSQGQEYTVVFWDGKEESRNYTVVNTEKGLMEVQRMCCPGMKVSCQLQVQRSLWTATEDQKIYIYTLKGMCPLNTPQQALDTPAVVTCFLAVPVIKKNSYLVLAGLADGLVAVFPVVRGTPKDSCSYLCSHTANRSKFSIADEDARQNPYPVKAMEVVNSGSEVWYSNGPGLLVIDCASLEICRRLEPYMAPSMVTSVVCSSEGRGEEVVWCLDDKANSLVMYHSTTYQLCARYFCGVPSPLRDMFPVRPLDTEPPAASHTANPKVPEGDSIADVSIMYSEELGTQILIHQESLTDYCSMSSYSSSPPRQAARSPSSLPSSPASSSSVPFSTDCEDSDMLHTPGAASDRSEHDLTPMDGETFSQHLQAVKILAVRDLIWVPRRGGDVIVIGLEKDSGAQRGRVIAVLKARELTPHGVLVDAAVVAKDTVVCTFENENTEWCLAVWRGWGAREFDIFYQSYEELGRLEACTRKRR
Sequence of LRRK2 WT (Q5S007 whole entry): as the sequence (Q5S007 whole entry G2019S) above, with S2019G counted along it

As for `Cc1ccc(NC(=O)c2cccc(N(C)C)c2)cc1NC(=O)c1ccc(O)cc1` [Inhibitor 53, ZM336372], the “effect on LRRK1 MBP phosphorylation” value at LRRK1 WT was “minimal to no effect”. The “effect on G2019S LRRK2 MBP phosphorylation” value on LRRK2 G2019S [1] is listed as “no effect”. In addition, the “effect on WT LRRK2 MBP phosphorylation” value at LRRK2 WT is “no effect”. Further, the “effect on G2019S LRRK2 autophosphorylation” value at LRRK2 G2019S [2] was “no effect”. Further, in assay [3], the “G2019S LRRK2 toxicity” value is on record as “failed to inhibit”.
As for `O=C1Nc2ccc(I)cc2/C1=C/c1cc(Br)c(O)c(Br)c1` [Inhibitor 56, GW5074], the IC50 was 3250 nM against LRRK1 WT; 880 nM against LRRK2 G2019S [1]; 3150 nM on LRRK2 WT (Table 2); 1090 nM against LRRK2 WT (Table 3); 220 nM against LRRK2 G2019S [2]. At LRRK2 WT, the “MBP phosphorylation Average ± SEM” value is 4.7 ± 4.1 % of control. In addition, at LRRK2 WT, the “effect on LRRK2-mediated phosphorylation of MBP” value is reported as “substantially inhibited”. In addition, the “G2019S LRRK2 cell death (TUNEL)” value in assay [3] is reported as “attenuated”. In assay [3], the “G2019S LRRK2 cell injury (neurite shortening)” value is “attenuated”.
For the compound `O=C1Nc2ccccc2/C1=C1/Nc2ccccc2/C1=N\O` [Inhibitor 70, Indirubin-3-monooxine], on LRRK1 WT, the “effect on LRRK1 MBP phosphorylation” value was “inhibited” and the half-maximal inhibitory concentration (IC50) was 3100 nM. Besides, on LRRK2 G2019S [1], inhibition was half-maximal at 1310 nM (IC50) and the “effect on G2019S LRRK2 MBP phosphorylation” value is “inhibited”. On LRRK2 WT (Table 2), the IC50 was found to be 4830 nM. At LRRK2 WT (Table 3), this compound registered an IC50 of 4830 nM. On LRRK2 WT, the “MBP phosphorylation Average ± SEM” value is reported as 33.1 ± 15.7 % of control, the “effect on WT LRRK2 MBP phosphorylation” value was “inhibited” and the “effect on LRRK2-mediated phosphorylation of MBP” value was “substantially inhibited”. Also, on LRRK2 G2019S [2], half-maximal inhibition (IC50) was put at 380 nM and the “effect on G2019S LRRK2 autophosphorylation” value was “inhibited”. Also, in assay [3], the “G2019S LRRK2 cell death (TUNEL)” value is given as “attenuated” and the “G2019S LRRK2 cell injury (neurite shortening)” value is “attenuated”.
